{"source": "patent EP1728511A1", "about": "“New use of phenethicillin and salts thereof” (Faust Pharmaceuticals, priority 2005, dated 2006)", "test_system": "SK-N-SH neuroblastoma cell", "experiment": "Serum deprivation assay, neuroblastoma cell survival (neutral red incorporation)", "type": "cell-based, Human", "conditions": "dose range of 1-10µM, SK-N-SH cells", "excerpt": "Serum provides survival factors (ex: growth factors) necessary to cell viability in culture conditions. According to the serum concentration it is possible to modulate the state of the cell viability. Total suppression of these components triggers cell death via apoptosis or necrosis. Causes of cell death could be oxidative stress and free radical accumulation, mitochondrial dysfunction or imbalanced calcium homeostasis. Human SK-N-SH is a neuronal cell line usually cultured in serum containing medium. Serum withdrawal in the cell culture condition provides a cell-based assay allowing the study of neuroprotection and the screening for drugs capable of protecting cells from death or delaying cell death (Ba et al. (2003) The establishment of a reliable cytotoxic system with SK-N-SH neuroblastoma cell culture. J Neurosci. Methods 123:11-22, Green et al. (1997) 17α-oestradiol exerts neuroprotective effect on SK-N-SH cells. J Neurosci. 17(2):511-515) SK-N-SH cells (passage 35) were obtained from ECACC. […] Cell viability was assessed 48h later. […] The dye (3mg/mL) is allowed to be taken up by the cells one hour at 37°C, 5% CO2, and is subsequently extracted by mixture of acetic acid and ethanol (1/[…]) and measured at 540 nm. […]"}
{"smiles": "CC(Oc1ccccc1)C(=O)N[C@@H]1C(=O)N2[C@@H]1SC(C)(C)[C@@H]2C(=O)O", "note": "(stereo partly drawn) [phenethicillin, (2S,5R,6R)-3,3-Dimethyl-7-oxo-6-[(1-oxo-2-phenoxypropyl)amino]-4-thia-1-azabicyclo[3.2.0]heptane-2-carboxylic acid]", "values": [{"measurement": "neuroblastoma cell death", "result": "significantly delayed neuroblastoma cell death"}]}
